Experimental data from ChEMBL document CHEMBL5608259 (J Med Chem, 2024).
pIC50: −log10 of the molar value. Activity calls are given as the source filed them. The rule behind the calls is not given here.

Columns and labels:
[1] = biological target: T1, Protein arginine N-methyltransferase 8 (Homo sapiens, UniProt Q9NR22); assay: Inhibition of human PRMT8 using Histone H4 as substrate and SAM as cofactor by radiometric HotSpot assay
Target sequence in this assay (Q9NR22 whole entry): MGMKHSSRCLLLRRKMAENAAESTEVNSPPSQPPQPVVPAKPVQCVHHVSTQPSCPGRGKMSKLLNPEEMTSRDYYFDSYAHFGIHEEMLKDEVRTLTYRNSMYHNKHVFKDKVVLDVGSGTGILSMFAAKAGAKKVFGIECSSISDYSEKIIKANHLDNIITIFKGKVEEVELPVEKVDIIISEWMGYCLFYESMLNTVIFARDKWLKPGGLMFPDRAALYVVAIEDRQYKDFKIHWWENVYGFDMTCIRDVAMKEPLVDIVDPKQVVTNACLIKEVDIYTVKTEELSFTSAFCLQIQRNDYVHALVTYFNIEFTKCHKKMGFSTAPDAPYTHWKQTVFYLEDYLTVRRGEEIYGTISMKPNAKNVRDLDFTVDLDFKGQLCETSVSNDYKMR

[2] = biological target: T2, Protein arginine N-methyltransferase 7 (Homo sapiens, UniProt Q9NVM4); assay: Inhibition of human PRMT7 using GST-GAR as substrate and SAM as cofactor by radiometric HotSpot assay
T2 sequence (Q9NVM4 whole entry): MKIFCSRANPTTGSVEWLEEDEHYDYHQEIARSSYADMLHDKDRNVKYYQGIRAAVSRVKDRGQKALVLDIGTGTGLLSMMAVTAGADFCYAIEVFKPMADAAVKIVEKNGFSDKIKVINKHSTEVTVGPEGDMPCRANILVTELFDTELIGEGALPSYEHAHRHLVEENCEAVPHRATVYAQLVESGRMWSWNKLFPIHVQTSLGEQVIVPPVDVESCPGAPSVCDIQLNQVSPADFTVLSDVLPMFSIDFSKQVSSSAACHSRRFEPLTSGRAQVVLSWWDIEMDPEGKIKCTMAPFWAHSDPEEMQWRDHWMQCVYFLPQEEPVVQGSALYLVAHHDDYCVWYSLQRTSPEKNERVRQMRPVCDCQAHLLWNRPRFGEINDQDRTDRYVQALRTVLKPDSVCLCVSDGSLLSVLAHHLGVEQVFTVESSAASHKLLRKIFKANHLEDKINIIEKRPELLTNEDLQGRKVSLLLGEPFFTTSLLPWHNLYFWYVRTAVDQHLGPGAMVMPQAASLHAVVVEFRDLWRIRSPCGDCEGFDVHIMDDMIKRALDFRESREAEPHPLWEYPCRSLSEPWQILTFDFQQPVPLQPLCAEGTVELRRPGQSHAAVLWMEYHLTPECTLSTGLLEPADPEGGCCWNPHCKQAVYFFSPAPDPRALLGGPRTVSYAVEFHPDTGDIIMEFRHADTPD

[3] = biological target: T3, Protein arginine N-methyltransferase 1 (Homo sapiens, UniProt Q99873); assay: Inhibition of human PRMT1 using Histone H4 as substrate and SAM as cofactor by radiometric HotSpot assay
Target sequence in this assay (Q99873 whole entry): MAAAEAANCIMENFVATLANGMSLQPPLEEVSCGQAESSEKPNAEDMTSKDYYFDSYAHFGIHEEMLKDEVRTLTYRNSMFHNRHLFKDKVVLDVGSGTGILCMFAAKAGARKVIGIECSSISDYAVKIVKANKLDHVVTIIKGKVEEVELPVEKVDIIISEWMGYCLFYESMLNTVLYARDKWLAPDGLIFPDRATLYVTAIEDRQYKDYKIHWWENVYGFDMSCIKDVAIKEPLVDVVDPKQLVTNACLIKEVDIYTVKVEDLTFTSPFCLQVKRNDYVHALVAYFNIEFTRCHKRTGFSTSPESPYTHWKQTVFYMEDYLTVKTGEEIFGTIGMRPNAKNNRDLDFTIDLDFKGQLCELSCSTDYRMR

[4] = biological target: T4, Protein arginine N-methyltransferase 6 (Homo sapiens, UniProt Q96LA8); assay: Inhibition of human PRMT6 using GST-GAR as substrate and SAM as cofactor at 10 uM by radiometric HotSpot assay relative to control
Target sequence in this assay (Q96LA8 whole entry, looked up): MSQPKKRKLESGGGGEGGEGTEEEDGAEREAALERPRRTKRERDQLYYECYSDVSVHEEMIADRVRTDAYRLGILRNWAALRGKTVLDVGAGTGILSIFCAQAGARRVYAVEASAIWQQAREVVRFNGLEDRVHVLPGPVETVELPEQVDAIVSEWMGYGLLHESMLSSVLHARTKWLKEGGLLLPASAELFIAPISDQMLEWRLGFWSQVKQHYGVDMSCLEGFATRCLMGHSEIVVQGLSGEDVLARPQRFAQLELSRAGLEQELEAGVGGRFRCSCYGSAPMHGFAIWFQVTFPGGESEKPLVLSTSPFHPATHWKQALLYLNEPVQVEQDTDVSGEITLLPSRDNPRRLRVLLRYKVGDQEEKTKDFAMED

[5] = biological target: T1, Protein arginine N-methyltransferase 8; assay: Inhibition of human PRMT8 using Histone H4 as substrate and SAM as cofactor at 10 uM by radiometric HotSpot assay relative to control
Target sequence in this assay (Q9NR22 2-394 limits assumed): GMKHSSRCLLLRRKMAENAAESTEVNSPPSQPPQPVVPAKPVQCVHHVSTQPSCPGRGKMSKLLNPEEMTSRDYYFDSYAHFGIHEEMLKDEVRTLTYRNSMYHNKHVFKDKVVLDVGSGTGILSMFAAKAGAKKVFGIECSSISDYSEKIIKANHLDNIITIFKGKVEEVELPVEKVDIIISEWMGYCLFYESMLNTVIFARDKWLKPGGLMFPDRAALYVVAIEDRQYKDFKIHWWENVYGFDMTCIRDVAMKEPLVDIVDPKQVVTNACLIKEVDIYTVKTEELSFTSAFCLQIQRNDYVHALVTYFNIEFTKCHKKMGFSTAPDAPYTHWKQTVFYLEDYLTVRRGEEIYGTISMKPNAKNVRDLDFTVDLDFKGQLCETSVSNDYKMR

[6] = biological target: T4, Protein arginine N-methyltransferase 6; assay: Inhibition of PRMT6 (unknown origin)
Target sequence in this assay (Q96LA8 whole entry): as the sequence (Q96LA8 whole entry, looked up) above

PRMT5/MEP50 complex = PRMT5/MEP50 complex (Homo sapiens, UniProt O14744); assay: Inhibition of human PRMT5/MEP50 using Histone H2 as substrate and SAM as cofactor by radiometric HotSpot assay; assay type: protein-complex assay
[7] = biological target: T5, Protein arginine N-methyltransferase 3 (Homo sapiens, UniProt O60678); assay: Inhibition of human PRMT3 using Histone H3 as substrate and SAM as cofactor by radiometric HotSpot assay
Target sequence in this assay (O60678 whole entry): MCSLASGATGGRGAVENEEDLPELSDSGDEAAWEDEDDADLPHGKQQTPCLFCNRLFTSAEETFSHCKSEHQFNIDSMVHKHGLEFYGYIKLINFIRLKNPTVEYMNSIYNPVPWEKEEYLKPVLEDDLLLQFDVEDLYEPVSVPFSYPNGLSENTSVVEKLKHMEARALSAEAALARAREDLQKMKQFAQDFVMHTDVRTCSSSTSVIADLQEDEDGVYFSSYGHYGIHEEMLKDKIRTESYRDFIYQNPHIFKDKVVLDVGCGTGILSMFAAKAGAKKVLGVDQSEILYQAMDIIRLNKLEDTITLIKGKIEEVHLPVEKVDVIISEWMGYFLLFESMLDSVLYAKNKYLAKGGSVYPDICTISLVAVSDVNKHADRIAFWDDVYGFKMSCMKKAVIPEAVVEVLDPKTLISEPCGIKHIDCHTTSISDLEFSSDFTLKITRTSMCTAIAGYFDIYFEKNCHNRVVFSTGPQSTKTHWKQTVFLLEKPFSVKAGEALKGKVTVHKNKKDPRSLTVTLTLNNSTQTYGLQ

[8] = biological target: T3, Protein arginine N-methyltransferase 1; assay: Inhibition of human PRMT1 using H4-21peptide as substrate at 10 uM incubated for 10 mins by fluorescence based analysis relative to control
Target sequence in this assay (Q99873 whole entry, looked up): as the sequence (Q99873 whole entry) above

[9] = biological target: T5, Protein arginine N-methyltransferase 3; assay: Inhibition of human PRMT3 using H4-21peptide as substrate at 10 uM incubated for 10 mins by fluorescence based analysis relative to control
Target sequence in this assay (O60678 2-531 limits assumed): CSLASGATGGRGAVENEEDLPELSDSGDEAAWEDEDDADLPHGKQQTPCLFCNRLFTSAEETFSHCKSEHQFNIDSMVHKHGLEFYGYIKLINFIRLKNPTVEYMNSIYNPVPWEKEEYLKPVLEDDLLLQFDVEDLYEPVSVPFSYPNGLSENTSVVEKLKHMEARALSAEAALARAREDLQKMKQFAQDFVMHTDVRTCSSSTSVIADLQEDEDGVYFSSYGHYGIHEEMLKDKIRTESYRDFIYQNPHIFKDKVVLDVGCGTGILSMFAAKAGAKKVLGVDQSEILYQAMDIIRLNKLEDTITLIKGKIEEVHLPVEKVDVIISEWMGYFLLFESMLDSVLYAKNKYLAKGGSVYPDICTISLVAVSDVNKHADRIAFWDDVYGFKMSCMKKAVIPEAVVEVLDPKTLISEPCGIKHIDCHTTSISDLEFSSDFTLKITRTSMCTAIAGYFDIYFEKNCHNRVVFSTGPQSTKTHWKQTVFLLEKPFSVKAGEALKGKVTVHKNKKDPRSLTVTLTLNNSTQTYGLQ

[10] = biological target: T6, Histone-arginine methyltransferase CARM1 (Homo sapiens) (UniProt Q86X55); assay: Inhibition of human PRMT4 using histone H3 as substrate and SAM as cofactor at 10 uM by radiometric HotSpot assay relative to control
T6 sequence (whole entry): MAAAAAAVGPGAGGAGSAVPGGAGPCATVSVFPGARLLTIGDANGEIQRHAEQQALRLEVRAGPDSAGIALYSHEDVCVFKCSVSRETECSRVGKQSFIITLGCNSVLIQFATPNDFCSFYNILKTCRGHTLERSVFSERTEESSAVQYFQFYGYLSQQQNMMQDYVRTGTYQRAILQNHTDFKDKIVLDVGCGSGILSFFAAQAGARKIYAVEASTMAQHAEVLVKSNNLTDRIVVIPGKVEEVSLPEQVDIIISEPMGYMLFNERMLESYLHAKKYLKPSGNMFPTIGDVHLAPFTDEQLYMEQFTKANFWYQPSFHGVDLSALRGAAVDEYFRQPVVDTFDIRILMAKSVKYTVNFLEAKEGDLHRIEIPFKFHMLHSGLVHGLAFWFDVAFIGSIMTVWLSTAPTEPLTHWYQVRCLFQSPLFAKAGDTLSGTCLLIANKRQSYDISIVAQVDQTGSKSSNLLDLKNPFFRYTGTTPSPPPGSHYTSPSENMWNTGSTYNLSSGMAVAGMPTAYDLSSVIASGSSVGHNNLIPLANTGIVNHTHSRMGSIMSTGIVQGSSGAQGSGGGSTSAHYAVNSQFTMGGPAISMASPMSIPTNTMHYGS

[11] = biological target: T7, Histone-arginine methyltransferase CARM1 (Homo sapiens, UniProt Q86X55); assay: Inhibition of human PRMT4 using histone H3 as substrate and SAM as cofactor by radiometric HotSpot assay
T7 sequence (Q86X55 whole entry): T6 sequence (whole entry)

[12] = Permeability of the compound by PAMPA method; assay type: ADME; settings: read-out: permeability
[13] = biological target: PRMT5/MEP50 complex (Homo sapiens) (UniProt O14744+Q9BQA1); assay: Inhibition of human PRMT5/MEP50 using Histone H2 as substrate and SAM as cofactor at 10 uM by radiometric HotSpot assay relative to control; assay type: protein-complex assay
MDA-MB-231 = assay: Inhibition of colony formation in human MDA-MB-231 cells at 10 uM incubated for 2 weeks by crystal violet staining based analysis relative to control; assay type: functional; settings: MDA-MB-231, 336 h

Chain of PRMT5/MEP50 complex (O14744 whole entry): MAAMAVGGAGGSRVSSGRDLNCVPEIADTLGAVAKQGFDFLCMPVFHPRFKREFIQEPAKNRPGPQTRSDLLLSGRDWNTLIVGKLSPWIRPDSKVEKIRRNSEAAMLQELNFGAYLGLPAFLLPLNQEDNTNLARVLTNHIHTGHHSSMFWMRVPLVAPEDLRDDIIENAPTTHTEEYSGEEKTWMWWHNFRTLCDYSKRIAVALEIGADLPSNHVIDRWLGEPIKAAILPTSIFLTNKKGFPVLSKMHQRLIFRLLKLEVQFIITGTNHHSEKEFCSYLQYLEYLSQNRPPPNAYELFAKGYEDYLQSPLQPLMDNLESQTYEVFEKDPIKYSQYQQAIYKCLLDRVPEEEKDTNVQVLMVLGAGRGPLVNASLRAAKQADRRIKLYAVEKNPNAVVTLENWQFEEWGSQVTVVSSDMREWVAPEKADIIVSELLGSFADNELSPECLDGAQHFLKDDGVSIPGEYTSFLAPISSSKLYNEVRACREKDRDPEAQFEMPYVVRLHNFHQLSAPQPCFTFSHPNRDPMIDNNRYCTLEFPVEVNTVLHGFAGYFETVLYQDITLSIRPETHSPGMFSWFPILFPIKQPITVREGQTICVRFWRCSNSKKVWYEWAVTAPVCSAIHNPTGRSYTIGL
Chain of PRMT5/MEP50 complex (Q9BQA1 whole entry, further chain): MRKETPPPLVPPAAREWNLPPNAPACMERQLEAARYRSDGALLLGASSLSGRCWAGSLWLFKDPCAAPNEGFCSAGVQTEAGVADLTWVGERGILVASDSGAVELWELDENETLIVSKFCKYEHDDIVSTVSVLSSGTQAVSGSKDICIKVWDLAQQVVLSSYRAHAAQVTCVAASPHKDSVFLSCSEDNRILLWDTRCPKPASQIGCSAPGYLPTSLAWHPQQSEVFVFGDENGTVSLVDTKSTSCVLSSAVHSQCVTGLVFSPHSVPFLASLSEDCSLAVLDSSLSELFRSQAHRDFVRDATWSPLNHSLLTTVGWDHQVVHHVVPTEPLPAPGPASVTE

SMILES | inhibition [4] | inhibition [5] | inhibition [8] | inhibition [9] | inhibition [10] | other results
N=C(NCCSC[C@H]1O[C@@H](n2cnc3c(N)ncnc32)[C@H](O)[C@@H]1O)Nc1ccccc1 | > 90% | > 95% | > 50% |  |  | pIC50 [1]: < 5.00; pIC50 [2]: 5.62; pIC50 [3]: < 5.00; pIC50 [6]: < 5.00; pIC50 (PRMT5/MEP50 complex): 6.45; pIC50 [7]: 6.49
Nc1ncnc2c1ncn2[C@@H]1O[C@H](CSCCCNC(=O)NCc2ccc3c(c2)OCO3)[C@@H](O)[C@H]1O | 70% | < 30% | < 50% | 3% | 27% | 
Nc1ncnc2c1ncn2[C@@H]1O[C@H](CSCCNCc2cccc(-c3ccoc3)c2)[C@@H](O)[C@H]1O | 50% | > 50% |  | < 30% | > 90% | pIC50 [11]: 8.92
N=C(N)NCCC[C@H](N)C(=O)NCC(=O)N[C@@H](CCCN)C(=O)N[C@@H](CCCNC(=N)NCCCSC[C@H]1O[C@@H](n2cnc3c(N)ncnc32)[C@H](O)[C@@H]1O)C(=O)O |  |  |  |  |  | pIC50 [1]: < 5.00; pIC50 [2]: 5.08; pIC50 [11]: 8.55; pIC50 [3]: 5.23; pIC50 (PRMT5/MEP50 complex): 9.38; pIC50 [7]: < 5.00
N=C(NCCCN)NCCCSC[C@H]1O[C@@H](n2cnc3c(NCCCc4ccccc4)ncnc32)[C@H](O)[C@@H]1O | Active | 70% | Active | < 30% | Active | 
Nc1ncnc2c1ncn2[C@@H]1O[C@H](CSCCNC(=O)NCc2ccc(-c3cccc(O)c3)cc2)[C@@H](O)[C@H]1O | 70% | < 30% | < 50% | 3% | 27% | 
N=C(NCCCSC[C@H]1O[C@@H](n2cnc3c(NCCCc4ccccc4)ncnc32)[C@H](O)[C@@H]1O)NC1CCC1 | Active | 70% | Active | < 30% | Active | 
Nc1ncnc2c1ncn2[C@@H]1O[C@H](CSCCNC(=O)NCc2ccc(-c3ccc(O)cc3)cc2)[C@@H](O)[C@H]1O | 70% | < 30% | < 50% | 3% | 27% | 
CCCCNC(=N)NCCCSC[C@H]1O[C@@H](n2cnc3c(NCCCc4ccccc4)ncnc32)[C@H](O)[C@@H]1O | Active | 70% | Active | < 30% | Active | 
N=C(NCCCSC[C@H]1O[C@@H](n2cnc3c(NCCCc4ccccc4)ncnc32)[C@H](O)[C@@H]1O)NC1CCCC1 | Active | 70% | Active | < 30% | Active | 
N=C(NCCCSC[C@H]1O[C@@H](n2cnc3c(NCCCc4ccccc4)ncnc32)[C@H](O)[C@@H]1O)NCCCc1ccccc1 | Active | 70% | Active | < 30% | Active | 
Nc1ncnc2c1ncn2[C@@H]1O[C@H](CSCCNCc2cccc(Br)c2)[C@@H](O)[C@H]1O | 50% | > 50% |  |  |  | Papp [12]: 0.3 ×10⁻⁶ cm/s; inhibition [13]: 75%
CNCCN1CCC(c2cc(CN(C)C(=O)c3cccc(Oc4ccccc4)c3)ccn2)CC1 |  |  |  |  |  | inhibition at 10 µM (MDA-MB-231): 30%
N=C(NCCCSC[C@H]1O[C@@H](n2cnc3c(NCCCc4ccccc4)ncnc32)[C@H](O)[C@@H]1O)NCc1ccccc1 | Active | 70% | Active | < 30% | Active | 
Nc1cccc(-c2ccc(CNC(=O)NCCSC[C@H]3O[C@@H](n4cnc5c(N)ncnc54)[C@H](O)[C@@H]3O)cc2)c1 | 70% | < 30% | < 50% | 3% | 27% | 
Nc1ncnc2c1ncn2[C@@H]1O[C@H](CSCCNCc2cccc(-c3cncnc3)c2)[C@@H](O)[C@H]1O | 50% | > 50% |  | < 30% | > 90% | pIC50 [11]: 8.03
N=C(NCCCSC[C@H]1O[C@@H](n2cnc3c(NCCCc4ccccc4)ncnc32)[C@H](O)[C@@H]1O)NCC1CC1 | Active | 70% | Active | < 30% | Active | 
Nc1ncnc2c1ncn2[C@@H]1O[C@H](CSCCCNCc2cccc(-c3cncnc3)c2)[C@@H](O)[C@H]1O | 50% | > 50% |  | < 30% | > 90% | pIC50 [11]: 7.31
N=C(NCCCSC[C@H]1O[C@@H](n2cnc3c(NCCCc4ccccc4)ncnc32)[C@H](O)[C@@H]1O)NC1CCCCC1 | Active | 70% | Active | < 30% | Active | 
N=C(NCCCSC[C@H]1O[C@@H](n2cnc3c(NCCCc4ccccc4)ncnc32)[C@H](O)[C@@H]1O)Nc1ccccc1 | Active | 70% | Active | < 30% | Active | 
N=C(NCCCSC[C@H]1O[C@@H](n2cnc3c(NCCCc4ccccc4)ncnc32)[C@H](O)[C@@H]1O)NCC1CCC1 | Active | 70% | Active | < 30% | Active | 
N=C(NCCCO)NCCCSC[C@H]1O[C@@H](n2cnc3c(NCCCc4ccccc4)ncnc32)[C@H](O)[C@@H]1O | Active | 70% | Active | < 30% | Active | 
N=C(NCCCSC[C@H]1O[C@@H](n2cnc3c(NCCCc4ccccc4)ncnc32)[C@H](O)[C@@H]1O)NCCc1ccccc1 | Active | 70% | Active | < 30% | Active | 
N=C(NCCCSC[C@H]1O[C@@H](n2cnc3c(NCCCc4ccccc4)ncnc32)[C@H](O)[C@@H]1O)NC1CC1 | Active | 70% | Active | < 30% | Active | 
CNC[C@@H](O)COc1ccc(Cl)c(-c2nc(-c3c(C)noc3C)c(C)c(N3CC4(CCN(C(=O)OC)CC4)C3)n2)c1 |  |  |  |  |  | inhibition at 10 µM (MDA-MB-231): 30%
